Measured values: patent US20030129629A1, “Methods and compositions for the identification, assessment, prevention, and therapy of human cancers” (Millennium Pharmaceuticals, Inc., priority 2000, published 2003)
Read-outs that look alike come from different tables or passages of the source.

Key:
[1] = test system: 60 cancer cell lines (NCI 60 cancer cell line series); experiment: NCI-DTP in vitro cancer screen, sulforhodamine B (SRB) growth inhibition, 48 hour exposure; assay type: cell-based, human
Summary of the method: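 NCI-DTP panel of 60 cancer cell lines plated day 0 at line-specific densities, exposed from day 1 to compound at 5 ten-fold-spaced doses in duplicate wells. After 48 h, cell mass stained with sulforhodamine B; −log GI50 derived from dose–response curves, averaged, and classed Low, Medium or High sensitivity.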

[2] = test system: 60 cancer cell lines (NCI 60 cancer cell line series); details: cited from earlier work

## Carboplatin
[1]; Breast BT-549 CL5013
  classification of cell line as Low(1), Medium(2), High(3) sensitivity to compound: 2
[1]; Breast HS-578T CL5006
  classification of cell line as Low(1), Medium(2), High(3) sensitivity to compound: 2
[1]; Breast MCF7(I) CL5001
  classification of cell line as Low(1), Medium(2), High(3) sensitivity to compound: 2
[1]; Breast MCF7/ADRr CL5002
  classification of cell line as Low(1), Medium(2), High(3) sensitivity to compound: 2
[1]; Breast MDA-MB-231 CL5005
  classification of cell line as Low(1), Medium(2), High(3) sensitivity to compound: 1
[1]; Breast MDA-MB-435 CL5011
  classification of cell line as Low(1), Medium(2), High(3) sensitivity to compound: 1
[1]; Breast MDA-N CL5012
  classification of cell line as Low(1), Medium(2), High(3) sensitivity to compound: 2
[1]; Breast T-47D CL5014
  classification of cell line as Low(1), Medium(2), High(3) sensitivity to compound: 1
[1]; CNS SF-268 CL12014
  classification of cell line as Low(1), Medium(2), High(3) sensitivity to compound: 3
[1]; CNS SF-295 CL12015
  classification of cell line as Low(1), Medium(2), High(3) sensitivity to compound: 3
[1]; CNS SF-539 CL12016
  classification of cell line as Low(1), Medium(2), High(3) sensitivity to compound: 2
[1]; CNS SNB-19 CL12002
  classification of cell line as Low(1), Medium(2), High(3) sensitivity to compound: 2
[1]; CNS SNB-75(I) CL12005
  classification of cell line as Low(1), Medium(2), High(3) sensitivity to compound: 2
[1]; CNS U251(I) CL12009
  classification of cell line as Low(1), Medium(2), High(3) sensitivity to compound: 2
[1]; Colon COLO-250 CL4010
  classification of cell line as Low(1), Medium(2), High(3) sensitivity to compound: 1
[1]; Colon HCC-2998 CL4002
  classification of cell line as Low(1), Medium(2), High(3) sensitivity to compound: 1
[1]; Colon HCT-15 CL4015
  classification of cell line as Low(1), Medium(2), High(3) sensitivity to compound: 1
[1]; Colon HCT-116 CL4003
  classification of cell line as Low(1), Medium(2), High(3) sensitivity to compound: 2
[1]; Colon HT29(I) CL4001
  classification of cell line as Low(1), Medium(2), High(3) sensitivity to compound: 1
[1]; Colon KM12 CL4017
  classification of cell line as Low(1), Medium(2), High(3) sensitivity to compound: 1
[1]; Colon SW-620 CL4009
  classification of cell line as Low(1), Medium(2), High(3) sensitivity to compound: 2
[1]; Leukemia CCRF-CEM(I) CL7003
  classification of cell line as Low(1), Medium(2), High(3) sensitivity to compound: 2
[1]; Leukemia HL-60(I) CL7008
  classification of cell line as Low(1), Medium(2), High(3) sensitivity to compound: 3
[1]; Leukemia K562(I) CL7005
  classification of cell line as Low(1), Medium(2), High(3) sensitivity to compound: 2
[1]; Leukemia MOLT-4 CL7006
  classification of cell line as Low(1), Medium(2), High(3) sensitivity to compound: 2
[1]; Leukemia RPMI-8226(I) CL7010
  classification of cell line as Low(1), Medium(2), High(3) sensitivity to compound: 2
[1]; Leukemia SR CL7019
  classification of cell line as Low(1), Medium(2), High(3) sensitivity to compound: 2
[1]; Melanoma LOX IMVI CL10001
  classification of cell line as Low(1), Medium(2), High(3) sensitivity to compound: 2
[1]; Melanoma M14 CL10014
  classification of cell line as Low(1), Medium(2), High(3) sensitivity to compound: 2
[1]; Melanoma MALME-3M CL10002
  classification of cell line as Low(1), Medium(2), High(3) sensitivity to compound: 2
[1]; Melanoma SK-MEL-2 CL10005
  classification of cell line as Low(1), Medium(2), High(3) sensitivity to compound: 2
[1]; Melanoma SK-MEL-28 CL10008
  classification of cell line as Low(1), Medium(2), High(3) sensitivity to compound: 2
[1]; NSCLC NCI-H23(I) CL1001
  sensitivity classification Low(1)/Medium(2)/High(3): 3
[1]; NSCLC NCI-H332M CL1017
  sensitivity classification Low(1)/Medium(2)/High(3): 1
[1]; NSCLC NCI-H460 CL1021
  sensitivity classification Low(1)/Medium(2)/High(3): 3
[1]; NSCLC NCI-H522 CL1003
  sensitivity classification Low(1)/Medium(2)/High(3): 3
[1]; Ovarian IGROV1 CL6010
  sensitivity classification Low(1)/Medium(2)/High(3): 3
[1]; Ovarian OVCAR-3 CL6001
  sensitivity classification Low(1)/Medium(2)/High(3): 2
[1]; Ovarian OVCAR-4 CL6002
  sensitivity classification Low(1)/Medium(2)/High(3): 2
[1]; Ovarian OVCAR-5 CL6003
  sensitivity classification Low(1)/Medium(2)/High(3): 1
[1]; Ovarian OVCAR-8 CL6005
  sensitivity classification Low(1)/Medium(2)/High(3): 2
[1]; Ovarian SK-OV-3 CL6011
  sensitivity classification Low(1)/Medium(2)/High(3): 2
[1]; Prostate DU-145 CL11003
  sensitivity classification Low(1)/Medium(2)/High(3): 2
[1]; Prostate PC-3(I) CL11001
  sensitivity classification Low(1)/Medium(2)/High(3): 1
[1]; Renal 786-0 CL9018
  sensitivity classification Low(1)/Medium(2)/High(3): 2
[1]; Renal A498 CL9013
  sensitivity classification Low(1)/Medium(2)/High(3): 1
[1]; Renal ACHN CL9023
  sensitivity classification Low(1)/Medium(2)/High(3): 2
[1]; Renal CAKI-1 CL9015
  sensitivity classification Low(1)/Medium(2)/High(3): 2
[1]; Renal RXF-393 CL9016
  sensitivity classification Low(1)/Medium(2)/High(3): 2
[1]; Renal SN12C CL9008
  sensitivity classification Low(1)/Medium(2)/High(3): 2
[1]; Renal TK10 CL9024
  sensitivity classification Low(1)/Medium(2)/High(3): 1
[1]; Renal UO-31 CL9004
  sensitivity classification Low(1)/Medium(2)/High(3): 2
[2]; Breast BT-549 CL5013
  −Log (GI50): 3.7
[2]; Breast HS-578T CL5006
  −Log (GI50): 3.8
[2]; Breast MCF7(I) CL5001
  −Log (GI50): 3.9
[2]; Breast MCF7/ADRr CL5002
  −Log (GI50): 3.8
[2]; Breast MDA-MB-231 CL5005
  −Log (GI50): 3.6
[2]; Breast MDA-MB-435 CL5011
  −Log (GI50): 3.7
[2]; Breast MDA-N CL5012
  −Log (GI50): 3.8
[2]; Breast T-47D CL5014
  −Log (GI50): 3.6
[2]; CNS SF-268 CL12014
  −Log (GI50): 4.3
[2]; CNS SF-295 CL12015
  −Log (GI50): 4.2
[2]; CNS SF-539 CL12016
  −Log (GI50): 4.1
[2]; CNS SNB-19 CL12002
  −Log (GI50): 3.8
[2]; CNS SNB-75(I) CL12005
  −Log (GI50): 4.0
[2]; CNS U251(I) CL12009
  −Log (GI50): 4.2
[2]; Colon COLO-250 CL4010
  −Log (GI50): 3.6
[2]; Colon HCC-2998 CL4002
  −Log (GI50): 3.7
[2]; Colon HCT-15 CL4015
  −Log (GI50): 3.6
[2]; Colon HCT-116 CL4003
  −Log (GI50): 3.7
[2]; Colon HT29(I) CL4001
  −Log (GI50): 3.7
[2]; Colon KM12 CL4017
  −Log (GI50): 3.7
[2]; Colon SW-620 CL4009
  −Log (GI50): 3.8
[2]; Leukemia CCRF-CEM(I) CL7003
  −Log (GI50): 4.2
[2]; Leukemia HL-60(I) CL7008
  −Log (GI50): 4.5
[2]; Leukemia K562(I) CL7005
  −Log (GI50): 3.8
[2]; Leukemia MOLT-4 CL7006
  −Log (GI50): 4.1
[2]; Leukemia RPMI-8226(I) CL7010
  −Log (GI50): 3.8
[2]; Leukemia SR CL7019
  −Log (GI50): 4.1
[2]; Melanoma LOX IMVI CL10001
  −Log (GI50): 4.2
[2]; Melanoma M14 CL10014
  −Log (GI50): 4.0
[2]; Melanoma MALME-3M CL10002
  −Log (GI50): 4.1
[2]; Melanoma SK-MEL-2 CL10005
  −Log (GI50): 3.8
[2]; Melanoma SK-MEL-5 CL10007
  −Log (GI50): 4.0
[2]; Melanoma SK-MEL-28 CL10008
  −Log (GI50): 3.8
[2]; Melanoma UACC-62 CL10020
  −Log (GI50): 4.4
[2]; Melanoma UACC-257 CL10021
  −Log (GI50): 3.9
[2]; NSCLC A549/ATCC CL1004
  −Log (GI50): 4.0
[2]; NSCLC EKVX CL1008
  −Log (GI50): 3.7
[2]; NSCLC HOP-62 CL1026
  −Log (GI50): 3.9
[2]; NSCLC HOP-92 CL1029
  −Log (GI50): 4.0
[2]; NSCLC NCI-H23(I) CL1001
  −Log (GI50): 4.3
[2]; NSCLC NCI-H226 CL1013
  −Log (GI50): 3.9
[2]; NSCLC NCI-H332M CL1017
  −Log (GI50): 3.7
[2]; NSCLC NCI-H460 CL1021
  −Log (GI50): 4.5
[2]; NSCLC NCI-H522 CL1003
  −Log (GI50): 4.3
[2]; Ovarian IGROV1 CL6010
  −Log (GI50): 4.3
[2]; Ovarian OVCAR-3 CL6001
  −Log (GI50): 4.2
[2]; Ovarian OVCAR-4 CL6002
  −Log (GI50): 4.1
[2]; Ovarian OVCAR-5 CL6003
  −Log (GI50): 3.6
[2]; Ovarian OVCAR-8 CL6005
  −Log (GI50): 3.7
[2]; Ovarian SK-OV-3 CL6011
  −Log (GI50): 3.7
[2]; Prostate DU-145 CL11003
  −Log (GI50): 3.9
[2]; Prostate PC-3(I) CL11001
  −Log (GI50): 3.6
[2]; Renal 786-0 CL9018
  −Log (GI50): 4.0
[2]; Renal A498 CL9013
  −Log (GI50): 3.7
[2]; Renal ACHN CL9023
  −Log (GI50): 4.1
[2]; Renal CAKI-1 CL9015
  −Log (GI50): 4.1
[2]; Renal RXF-393 CL9016
  −Log (GI50): 4.2
[2]; Renal SN12C CL9008
  −Log (GI50): 3.8
[2]; Renal TK10 CL9024
  −Log (GI50): 3.7
[2]; Renal UO-31 CL9004
  −Log (GI50): 3.8
